Values of other authors, collected in US20210045998A1 (priority 2018, published 2021).

Conditions: in vivo

**Q.** Which human pulmonary uptake does the source give for `CC1=CC[C@H]2C[C@@H]1C2(C)C` [α-Pinene, (1S,5S)-2,6,6-Trimethylbicyclo[3.1.1]hept-2-ene] here?
**A.** Its human pulmonary uptake is 60%.
